US11213030B2, “4-(3,4-dihydronaphth-1-yl or 2H-chromen-4-yl)-5-hydroxy-2H-pyradizin-3-ones as herbicides” (FMC Corporation, priority 2017, dated 2022)

Legend:
Format in all cases: in vivo
[1] = test system: barnyardgrass (Echinochloa crus-galli); experiment: Test A preemergence, barnyardgrass; settings: 0 to 100 scale
Excerpt: (§1) Seeds of plant species selected from barnyardgrass (Echinochloa crus-galli), kochia (Kochia scoparia), ragweed (common ragweed, Ambrosia elatior), ryegrass, It. (Italian ryegrass, Lolium multiflorum), foxtail, green (green foxtail, Setaria viridis), and pigweed (Amaranthus retroflexus) were planted into a blend of loam soil and sand and treated preemergence with a directed soil spray using test chemicals formulated in a non-phytotoxic solvent mixture which included a surfactant. At the same time, plants selected from these weed species and also wheat (Triticum aestivum), corn (Zea mays), blackgrass (Alopecurus myosuroides), and galium (catchweed bedstraw, Galium aparine) were planted in pots containing the same blend of loam soil and sand and treated with postemergence applications of test chemicals formulated in the same manner. Plants ranged in height from 2 to 10 cm and were in the one- to two-leaf stage for the postemergence treatment. Treated plants and untreated controls were maintained in a greenhouse for approximately 10 d, after which time all treated plants were compared to untreated controls and visually evaluated for injury. Plant response ratings, summarized in Table A, are based on a 0 to 100 scale where 0 is no effect and 100 is complete control. A dash (-) response means no test result.

[2] = test system: kochia (Kochia scoparia); experiment: Test A preemergence, kochia; settings: 0 to 100 scale
Excerpt: as §1

[3] = test system: ragweed (common ragweed, Ambrosia elatior); experiment: Test A preemergence, ragweed; settings: 0 to 100 scale
Excerpt: as §1

[4] = test system: ryegrass, It. (Italian ryegrass, Lolium multiflorum); experiment: Test A preemergence, Italian ryegrass; settings: 0 to 100 scale
Excerpt: as §1

[5] = test system: foxtail, green (green foxtail, Setaria viridis); experiment: Test A preemergence, green foxtail; settings: 0 to 100 scale
Excerpt: as §1

[6] = test system: pigweed (Amaranthus retroflexus); experiment: Test A preemergence, pigweed; settings: 0 to 100 scale
Excerpt: as §1

[7] = test system: barnyardgrass (Echinochloa crus-galli); experiment: Test A postemergence, barnyardgrass; settings: 0 to 100 scale
Excerpt: as §1

[8] = test system: kochia (Kochia scoparia); experiment: Test A postemergence, kochia; settings: 0 to 100 scale
Excerpt: as §1

[9] = test system: ragweed (common ragweed, Ambrosia elatior); experiment: Test A postemergence, ragweed; settings: 0 to 100 scale
Excerpt: as §1

[10] = test system: ryegrass, It. (Italian ryegrass, Lolium multiflorum); experiment: Test A postemergence, Italian ryegrass; settings: 0 to 100 scale
Excerpt: as §1

[11] = test system: foxtail, green (green foxtail, Setaria viridis); experiment: Test A postemergence, green foxtail; settings: 0 to 100 scale
Excerpt: as §1

[12] = test system: pigweed (Amaranthus retroflexus); experiment: Test A postemergence, pigweed; settings: 0 to 100 scale
Excerpt: as §1

[13] = test system: wheat (Triticum aestivum); experiment: Test A postemergence, wheat; settings: 0 to 100 scale
Excerpt: as §1

[14] = test system: corn (Zea mays); experiment: Test A postemergence, corn; settings: 0 to 100 scale
Excerpt: as §1

[15] = test system: blackgrass (Alopecurus myosuroides); experiment: Test A postemergence, blackgrass; settings: 0 to 100 scale
Excerpt: as §1

[16] = test system: galium (catchweed bedstraw, Galium aparine); experiment: Test A postemergence, galium; settings: 0 to 100 scale
Excerpt: as §1

[17] = test system: barnyardgrass (Echinochloa crus-galli); experiment: Test B flooded paddy test, barnyardgrass; settings: Flood, 250 g ai/ha applied to paddy water, 2-leaf stage, 13 to 15 d; scale of 0 to 100 where 0 is no effect and 100 is complete control
Protocol: (§2) Plant species in the flooded paddy test selected from rice (Oryza sativa), sedge, umbrella (small-flower umbrella sedge, Cyperus difformis), ducksalad (Heteranthera limosa), and barnyardgrass (Echinochloa crus-galli) were grown to the 2-leaf stage for testing. At the time of treatment, test pots were flooded to 3 cm above the soil surface, treated by application of test compounds directly to the paddy water, and then maintained at that water depth for the duration of the test. Treated plants and controls were maintained in a greenhouse for 13 to 15 d, after which time all species were compared to controls and visually evaluated. Plant response ratings, summarized in Table B, are based on a scale of 0 to 100 where 0 is no effect and 100 is complete control. A dash (-) response means no test result.

[18] = test system: ducksalad (Heteranthera limosa); experiment: Test B flooded paddy test, ducksalad; settings: Flood, 250 g ai/ha applied to paddy water, 2-leaf stage, 13 to 15 d; scale of 0 to 100 where 0 is no effect and 100 is complete control
Protocol: as §2

[19] = test system: rice (Oryza sativa); experiment: Test B flooded paddy test, rice; settings: Flood, 250 g ai/ha applied to paddy water, 2-leaf stage, 13 to 15 d; scale of 0 to 100 where 0 is no effect and 100 is complete control
Protocol: as §2

[20] = test system: sedge, umbrella (small-flower umbrella sedge, Cyperus difformis); experiment: Test B flooded paddy test, umbrella sedge; settings: Flood, 250 g ai/ha applied to paddy water, 2-leaf stage, 13 to 15 d; scale of 0 to 100 where 0 is no effect and 100 is complete control
Protocol: as §2

SMILES | Plant response rating, Barnyardgrass ([1]; 125 g ai/ha) | Plant response rating, Kochia ([2]; 125 g ai/ha) | Plant response rating, Ragweed ([3]; 125 g ai/ha) | Plant response rating, Ryegrass, It. ([4]; 125 g ai/ha) | Plant response rating, Foxtail, Green ([5]; 125 g ai/ha) | Plant response rating, Pigweed ([6]; 125 g ai/ha) | Plant response rating, Barnyardgrass ([7]; 125 g ai/ha) | Plant response rating, Kochia ([8]; 125 g ai/ha) | Plant response rating, Ragweed ([9]; 125 g ai/ha) | Plant response rating, Ryegrass, It. ([10]; 125 g ai/ha) | Plant response rating, Foxtail, Green ([11]; 125 g ai/ha) | Plant response rating, Pigweed ([12]; 125 g ai/ha) | Plant response rating, Wheat ([13]; 125 g ai/ha) | Plant response rating, Corn ([14]; 125 g ai/ha) | Plant response rating, Blackgrass ([15]; 125 g ai/ha) | Plant response rating, Galium ([16]; 125 g ai/ha) | Plant response rating, Barnyardgrass [17] | Plant response rating, Ducksalad [18] | Plant response rating, Rice [19] | Plant response rating, Sedge, Umbrella [20] | other results
CC1=C(c2c(O)c(C)nn(C)c2=O)c2cc(C)ccc2CC1 [Compound 4] | 0 | 0 | 0 | 0 | 0 | 0 | 10 | 20 | 20 | 20 | 20 | 70 | 0 | 0 | 0 | 70 | 0 | 0 | 0 | 0 | Plant response rating, Barnyardgrass ([1]; 31 g ai/ha): 0; Plant response rating, Kochia ([2]; 31 g ai/ha): 0; Plant response rating, Ragweed ([3]; 31 g ai/ha): 0; Plant response rating, Ryegrass, It. ([4]; 31 g ai/ha): 0; Plant response rating, Foxtail, Green ([5]; 31 g ai/ha): 0; Plant response rating, Pigweed ([6]; 31 g ai/ha): 0; Plant response rating, Barnyardgrass ([7]; 31 g ai/ha): 10; Plant response rating, Kochia ([8]; 31 g ai/ha): 0; Plant response rating, Ragweed ([9]; 31 g ai/ha): 0; Plant response rating, Ryegrass, It. ([10]; 31 g ai/ha): 0; Plant response rating, Foxtail, Green ([11]; 31 g ai/ha): 10; Plant response rating, Pigweed ([12]; 31 g ai/ha): 50; Plant response rating, Wheat ([13]; 31 g ai/ha): 0; Plant response rating, Corn ([14]; 31 g ai/ha): 0; Plant response rating, Blackgrass ([15]; 31 g ai/ha): 0; Plant response rating, Galium ([16]; 31 g ai/ha): 40
CC1=C(c2c(O)c(C)nn(C)c2=O)c2ccccc2CC1 [Compound 2, 4-(3,4-dihydro-2-methyl-1-naphthalenyl)-5-hydroxy-2,6-dimethyl-3(2H)-pyridazinone] | 0 | 0 | 40 | 40 | 0 | 0 | 0 | 80 | 80 | 60 | 10 | 80 | 0 | 10 | 0 | 90 | 0 | 0 | 0 | 0 | Plant response rating, Barnyardgrass ([1]; 500 g ai/ha): 0; Plant response rating, Kochia ([2]; 500 g ai/ha): 80; Plant response rating, Ragweed ([3]; 500 g ai/ha): 90; Plant response rating, Ryegrass, It. ([4]; 500 g ai/ha): 50; Plant response rating, Foxtail, Green ([5]; 500 g ai/ha): 0; Plant response rating, Pigweed ([6]; 500 g ai/ha): 80; Plant response rating, Barnyardgrass ([7]; 500 g ai/ha): 20; Plant response rating, Kochia ([8]; 500 g ai/ha): 90; Plant response rating, Ragweed ([9]; 500 g ai/ha): 90; Plant response rating, Ryegrass, Italian ([10]; 500 g ai/ha): 100; Plant response rating, Foxtail, Green ([11]; 500 g ai/ha): 70; Plant response rating, Pigweed ([12]; 500 g ai/ha): 90; Plant response rating, Wheat ([13]; 500 g ai/ha): 0; Plant response rating, Corn ([14]; 500 g ai/ha): 10; Plant response rating, Blackgrass ([15]; 500 g ai/ha): 20; Plant response rating, Galium ([16]; 500 g ai/ha): 100
CC1=C(c2c(O)c(C)nn(C)c2=O)c2ccccc2OC1 [Compound 3, 5-hydroxy-2,6-dimethyl-4-(3-methyl-2H-1-benzopyran-4-yl)-3(2H)-pyridazinone] | 0 | 10 | 0 | 0 | 0 | 10 | 0 | 70 | 60 | 10 | 0 | 80 | 0 | 0 | 0 | – | 0 | 0 | 0 | 50 | Plant response rating, Barnyardgrass ([1]; 500 g ai/ha): 0; Plant response rating, Kochia ([2]; 500 g ai/ha): 30; Plant response rating, Ragweed ([3]; 500 g ai/ha): 50; Plant response rating, Ryegrass, It. ([4]; 500 g ai/ha): 10; Plant response rating, Foxtail, Green ([5]; 500 g ai/ha): 0; Plant response rating, Pigweed ([6]; 500 g ai/ha): 60; Plant response rating, Barnyardgrass ([7]; 500 g ai/ha): 10; Plant response rating, Kochia ([8]; 500 g ai/ha): 90; Plant response rating, Ragweed ([9]; 500 g ai/ha): 90; Plant response rating, Ryegrass, Italian ([10]; 500 g ai/ha): 60; Plant response rating, Foxtail, Green ([11]; 500 g ai/ha): 20; Plant response rating, Pigweed ([12]; 500 g ai/ha): 100; Plant response rating, Wheat ([13]; 500 g ai/ha): 0; Plant response rating, Corn ([14]; 500 g ai/ha): 10; Plant response rating, Blackgrass ([15]; 500 g ai/ha): 10
COc1c(C)nn(C)c(=O)c1C1=C(C)CCc2ccccc21 [Compound 1, 4-(3,4-dihydro-2-methyl-1-naphthalenyl)-5-methoxy-2,6-dimethyl-3(2H)-pyridazinone] | – | – | – | – | – | – | – | – | – | – | – | – | – | – | – | – | – | – | – | – | Plant response rating, Barnyardgrass ([1]; 1000 g ai/ha): 80; Plant response rating, Kochia ([2]; 1000 g ai/ha): 70; Plant response rating, Ragweed ([3]; 1000 g ai/ha): 100; Plant response rating, Ryegrass, It. ([4]; 1000 g ai/ha): 100; Plant response rating, Foxtail, Green ([5]; 1000 g ai/ha): 70; Plant response rating, Pigweed ([6]; 1000 g ai/ha): 60; Plant response rating, Barnyardgrass ([7]; 1000 g ai/ha, 0 no effect, 100 complete control): 60; Plant response rating, Kochia ([8]; 1000 g ai/ha): 20; Plant response rating, Ragweed ([9]; 1000 g ai/ha): 90; Plant response rating, Ryegrass, Italian ([10]; 1000 g ai/ha): 90; Plant response rating, Foxtail, Green ([11]; 1000 g ai/ha): 60; Plant response rating, Pigweed ([12]; 1000 g ai/ha): 80; Plant response rating, Wheat ([13]; 1000 g ai/ha): 0; Plant response rating, Corn ([14]; 1000 g ai/ha): 10; Plant response rating, Blackgrass ([15]; 1000 g ai/ha): 70; Plant response rating, Galium ([16]; 1000 g ai/ha): 100
CC(=O)Oc1c(C)nn(C)c(=O)c1C1=C(C)CCc2ccccc21 [Compound 5] | 0 | 10 | 80 | 70 | 0 | 100 | 30 | 80 | 80 | 80 | 40 | 100 | 0 | 20 | 30 | 90 | 0 | 0 | 0 | 0 | Plant response rating, Barnyardgrass ([1]; 31 g ai/ha): 20; Plant response rating, Kochia ([2]; 31 g ai/ha): 0; Plant response rating, Ragweed ([3]; 31 g ai/ha): 20; Plant response rating, Ryegrass, It. ([4]; 31 g ai/ha): 40; Plant response rating, Foxtail, Green ([5]; 31 g ai/ha): 0; Plant response rating, Pigweed ([6]; 31 g ai/ha): 20; Plant response rating, Barnyardgrass ([7]; 31 g ai/ha): 20; Plant response rating, Kochia ([8]; 31 g ai/ha): 70; Plant response rating, Ragweed ([9]; 31 g ai/ha): 30; Plant response rating, Ryegrass, It. ([10]; 31 g ai/ha): 70; Plant response rating, Foxtail, Green ([11]; 31 g ai/ha): 20; Plant response rating, Pigweed ([12]; 31 g ai/ha): 70; Plant response rating, Wheat ([13]; 31 g ai/ha): 0; Plant response rating, Corn ([14]; 31 g ai/ha): 20; Plant response rating, Blackgrass ([15]; 31 g ai/ha): 0; Plant response rating, Galium ([16]; 31 g ai/ha): 90
